Measurements published in patent US6566327B1, “Histogranin peptides and their analgesic use” (University of Ottawa, priority 1997, dated 2003).
Marks after values point to notes of the source that are not given here. Square brackets hold non-standard residues; d marks the D form. Peptide text beside a SMILES is read from it.

Legend:
[1] = Solubility noted in the compound description; assay type: physicochemical; conditions: water and DMSO
[2] = system: Male Swiss Webster mice; experiment: Mouse acetic acid-induced writhing test (i.c.v. peptides); assay type: in vivo; conditions: for Potency ratio (95% CL): as compared with HN; for ED50 (nmol/mouse) (95% CL): method #1, percent of mice showing analgesia; for ED50 (nmol/mouse) (95% CL) / AD50 (nmol/mouse) (95% CL): acetic acid i.p. 5 min after peptide, 95% CL in brackets; for AD50 (nmol/mouse) (95% CL): method #2, percent analgesia
Method: Mice (male 20-25 g, Swiss Webster) were obtained from Charles River (Canadian Breeding Farm, St. Constant, Quebec). They were housed five per cage in a room with controlled temperature (22±2° C.), humidity and artificial light (06.30-19 h). […] The experiments were authorized by the animal care committee of the University of Ottawa in accordance […] guidelines of the Canadian Council on Animal Care. The i.c.v. administrations of the peptides were performed as described by Shukla et al. (Shukla et al., Brain Res. 591, 176, 1992 the disclosure of which is incorporated by reference). Peptides were dissolved in double-distilled sterile water (vehicle) and 10 μl of the peptide solution or vehicle was delivered gradually within approximately 3 sec. […] The administration site was confirmed by injecting Indian ink in preliminary experiments. Mouse Writhing Test: Antinociceptive activity of the peptides was evaluated using the acetic acid-induced writhing test according to a modification (Shukla et al. Brain Research 591, 176, 1992 the disclosure of which is incorporated by reference) of the method of Hayashi and Takemori (Eur.J. Pharmacol. 16 63, 1971 the disclosure of which is incorporated by reference). […] An abdominal stretch is characterized by the contraction of the abdominal muscles, the arching of the back vent-ally such that the abdomen touches the bedding surface and the extension of one or both hind limbs. Mice were used once and then killed immediately. Groups of 10 mice were used for each dose. […] Biochem. Psycholpharmacol. 8:191, 1974, the disclosure of which is incorporated by reference). […] Pharmacol. Exp. Ther. 96 99, 1949, the disclosure of which is incorporated by reference) using procedure 47 of the computer program of Tallarida and Murray (in “Manual of pharmacological calculations with computer programs”, 2nd ed., Springer, New York, 1987, the disclosure of which is incorporated by reference). In the second case (method #2), the percentage of analgesia is calculated for each dose by the formula: [(mean number of writhes in control group-mean number of writhes for the test group)/(mean number of writhes in control group)×100]. […] Pharmacol. Exp. Ther 96, 99, 1949 the disclosure in which is incorporated by reference) using procedure 47 of the computer program of Tallarida and Murray (in “Manual of pharmacological calculations with computer programs”. 2nd ed., Springer, New York, 1987, the disclosure in which is incorporated by reference).

Compound	Solubility [1]	Potency ratio (95% CL) ([2]; method #1 (ED50))	Potency ratio (95% CL) ([2]; method #2 (AD50))	ED50 (nmol/mouse) (95% CL) [2]	AD50 (nmol/mouse) (95% CL) [2]
NC(=O)CC[C@@H]1NC(=O)CNC(=O)[C@H](CCCN=C(N)N)NC(=O)[C@H](Cc2ccc(O)cc2)NC1=O [Peptide 7, cyclic(-Gly-Gln-Tyr-Arg-)] (cyclo(GQYR))	Soluble in water and DMSO				
C[C@@H]1NC(=O)[C@H](CCC(N)=O)NC(=O)[C@H](CCCNC(=N)N)NC(=O)[C@H](CCCNC(=N)N)NC(=O)[C@H](C)NC(=O)[C@H](CCC(N)=O)NC(=O)[C@H](CCCNC(=N)N)NC(=O)[C@H](CCCNC(=N)N)NC1=O [Peptide 6B] (cyclo(ARRQARRQ))	Soluble in water and DMSO				
N=C(N)NCCC[C@H](NC(=O)CNC(=O)[C@H](CCC(N)=O)NC(=O)CN)C(=O)O [Peptide 2, H-Gly-Gln-Gly-Arg-OH] (H-GQGR-OH)	Soluble in water and DMSO	2.0 (0.6-6.3)	0.91 (0.11-7.63)	11.3 (4.2-30.4) nmol/mouse	25.9 (5.9-113) nmol/mouse
NC(=O)CC[C@H]1NC(=O)CNC(=O)[C@@H](CCCN=C(N)N)NC(=O)[C@H](Cc2ccc(O)cc2)NC1=O [Peptide 9, cyclic(-Gly-D-Gln-Tyr-D-Arg-)] (cyclo(G[dQ]Y[dR]))	Soluble in water and DMSO				
N=C(N)NCCC[C@H]1NC(=O)[C@H](Cc2ccc(O)cc2)NC(=O)[C@@H](CCC(N)=O)NC(=O)CNC1=O [Peptide 9, cyclic(-Gly-D-Gln-Tyr-D-Arg-)] (cyclo(G[dQ]Y[dR]))			10.6 (3.6-31.0)*		2.23 (1.45-3.43) nmol/mouse
C[C@H](NC(=O)[C@H](CCC(N)=O)NC(=O)CN)C(=O)N[C@@H](CCCN=C(N)N)C(=O)O [Peptide 3, H-Gly-Gln-Ala-Arg-OH] (H-GQAR-OH)	Soluble in water and DMSO				
C[C@H](NC(=O)[C@H](CCC(N)=O)NC(=O)[C@@H](N)CCCNC(=N)N)C(=O)N[C@@H](CCCNC(=N)N)C(=O)O [Peptide 4, H-Arg-Gln-Ala-Arg-OH]	Soluble in water and DMSO	4.5 (1.4-14.3)	1.86 (0.27-12.8)	4.9 (1.8-13.2) nmol/mouse	12.7 (3.5-46.1) nmol/mouse
N=C(N)NCCC[C@@H]1NC(=O)[C@H](Cc2ccc(O)cc2)NC(=O)[C@H](CCC(N)=O)NC(=O)CNC1=O [Peptide 7, cyclic(-Gly-Gln-Tyr-Arg-)] (cyclo(GQYR))			5.6 (1.25-25)*		4.21 (1.80-9.87) nmol/mouse
C[C@H](NC(=O)[C@H](CCC(N)=O)NC(=O)CN)C(=O)N[C@@H](CCCNC(=N)N)C(=O)O [Peptide 3, H-Gly-Gln-Ala-Arg-OH] (H-GQAR-OH)		5.7 (2.0-15.9)	6.92 (0.84-56.2)*	3.9 (1.7-9.1) nmol/mouse	3.41 (0.8-14.6) nmol/mouse
C[C@@H]1NC(=O)[C@H](CCC(N)=O)NC(=O)[C@H](CCCNC(=N)N)NC(=O)[C@H](CCCNC(=N)N)NC1=O [Peptide 6, cyclic(-Arg-Gln-Ala-Arg-)]	Soluble in water and DMSO		0.94 (0.22-3.98)		25.1 (11.3-55.6) nmol/mouse
H-RQGRTLYGF-OH [Peptide 13]		3.0 (0.8-11.2)	2.43 (0.2-18)	7.5 (2.3 -24.4) nmol/mouse	9.7 (2.5-37.4) nmol/mouse
N=C(N)NCCC[C@H]1NC(=O)[C@H](Cc2ccc(O)cc2)NC(=O)[C@H](CCC(N)=O)NC(=O)CNC1=O [Peptide 8, cyclic(-Gly-Gln-Tyr-D-Arg-)] (cyclo(GQY[dR]))			5.35 (1.04-26.4)*		4.41 (1.7-11.9) nmol/mouse
N=C(N)NCCC[C@H](NC(=O)CNC(=O)[C@H](CCC(N)=O)NC(=O)[C@@H](N)CCCNC(=N)N)C(=O)O [Peptide 1, H-Arg-Gln-Gly-Arg-OH] (H-RQGR-OH)	soluble in water and DMSO		1.84 (0.3-12.5)		12.8 (3.6-46.1) nmol/mouse
C[C@@H]1NC(=O)[C@H](CCC(N)=O)NC(=O)CNC(=O)[C@H](CCCNC(=N)N)NC1=O [Peptide 5, cyclic(-Gly-Gln-Ala-Arg-)] (cyclo(ARGQ))	Soluble in water and DMSO	7.7 (1.3-46.6)	1.77 (0.11-28.1)	2.9 (0.8 -9.8) nmol/mouse	13.3 (1.6-114) nmol/mouse
C[C@@H]1NC(=O)[C@H](CCC(N)=O)NC(=O)CNC(=O)[C@H](CCCNC(=N)N)NC(=O)[C@H](C)NC(=O)[C@H](CCC(N)=O)NC(=O)CNC(=O)[C@H](CCCNC(=N)N)NC1=O [Peptide 5B] (cyclo(ARGQARGQ))	Soluble in water and DMSO		0.93 (0.22-3.9)		25.3 (11.6-55.1) nmol/mouse
